Results: patent US20200046836A1, “Terpene Carrier” (priority 2015, published 2020)
Like-named read-outs stand apart in the source and are kept apart here.

Tests used:
[1] = cited from earlier work
[2] = reported; cited from earlier work
[3] = Amount of lipophilic active ingredient that the carrier can hold in solution; assay type: physicochemical; conditions: Example 7

For C=C1CC/C=C(\C)CC[C@@H]2[C@@H]1CC2(C)C [Beta-caryophyllene], the “LD50 (Lethal Dose)” value ([1]; in vivo) is listed as > 5000 mg/kg.
In the case of CCCCCc1cc(O)c2c(c1)OC(C)(CCC=C(C)C)C=C2 (stereo not shown) [CBC, cannabichromene], the “effectiveness relative to CBD in the treatment of anxiety and stress” value [2] is listed as “about ten times more effective than CBD”.
In the case of C=C(C)[C@@H]1CCC(C)=C[C@H]1c1c(O)cc(CCCCC)cc1O [CBD, cannabidiol], the “keeping CBD in solution in the propylene glycol/glycerine mixture” value ([3]; control carrier) is reported as “difficult to maintain 10% by weight” and the “CBD content of solution that could be prepared in the terpene mixture” value ([3]; terpene mixture) is reported as “at least 30 % by weight”.
For C=CC(C)(O)CCC=C(C)C (stereo not shown) [Linalool], the “LD50 (Lethal Dose)” value ([1]; in vivo) is listed as 3000 mg/kg.
For C=CC(=C)CCC=C(C)C [Myrcene], the “LD50 (Lethal Dose)” value ([1]; in vivo) is listed as > 5000 mg/kg.
For CN1CCCC1c1cccnc1 (stereo not shown) [nicotine, reference compound], the “LD50 (Lethal Dose)” value ([1]; nicotine as comparison) is given as 40 to 60 mg/kg.
